Patent US6455540B1, “Methods of use of quinolone compounds against anaerobic pathogenic bacteria” (priority 1999, dated 2002)
Converted amounts (≈) assume the structure as drawn.

How the values were obtained:
Assay in all cases: Agar dilution MIC
[1] = tested on: Clostridium clostridioforme; assay type: cell-based; conditions: Clostridium, 11 isolates
Bacteroides gracilis = assay type: cell-based, Bacteroides gracilis (Campylobacter gracilis); conditions: Campylobacter gracilis, 11 isolates
[2] = tested on: Prevotella buccae-oris group; assay type: cell-based; conditions: 22 isolates
Prevotella bivia = assay type: cell-based; conditions: Prevotella bivia, 21 isolates
[3] = tested on: Anaerobiospirillum succiniciproducens; assay type: cell-based; conditions: 3 isolates
Porphyromonas macaccae = assay type: cell-based; conditions: 13 isolates
Clostridium dfficile = assay type: cell-based, Clostridium difficile; conditions: Clostridium
Fusobacterium varium = assay type: cell-based; conditions: Fusobacterium varium, 17 isolates
[4] = tested on: Peptostreptococcus asaccharolyticus; assay type: cell-based; conditions: Peptoniphilus asaccharolyticus, 11 isolates
Prevotella intermedia = assay type: cell-based; conditions: 11 isolates
[5] = tested on: Actinomyces odontolyticus; assay type: cell-based; conditions: Schaalia odontolytica, 10 isolates
[6] = tested on: Anaerobiospirillum thomasii; assay type: cell-based; conditions: 13 isolates
[7] = tested on: Prevotella denticola/loeschii group; assay type: cell-based; conditions: Prevotella denticola, read-out: Minimal Inhibitory Concentration 50% (MIC50); 6 isolates
Porphyromonas canoris = assay type: cell-based; conditions: 10 isolates
[8] = tested on: Fusobacterium spp group 1; assay type: cell-based; conditions: Fusobacterium, 19 isolates
[9] = tested on: Peptostreptococcus prevotii; assay type: cell-based; conditions: Anaerococcus prevotii, read-out: Minimal Inhibitory Concentration 50% (MIC50); 9 isolates
Clostridium inocuum = assay type: cell-based, Clostridium innocuum; conditions: Clostridium, 11 isolates
[10] = tested on: Peptostreptococcus magnus; assay type: cell-based; conditions: Finegoldia magna, 13 isolates
Actinomyces israelii = assay type: cell-based; conditions: 6 isolates
Bacteroides tectum = assay type: cell-based; conditions: 22 isolates
Porphyromonas gingivalis = assay type: cell-based; conditions: 13 isolates
[11] = tested on: Porphyromonas asaccharolyticus; assay type: cell-based, Porphyromonas asaccharolytica; conditions: 11 isolates
Veillonella spp. = assay type: cell-based; conditions: Veillonella, 24 isolates
[12] = tested on: Fusobacterium spp. group 2; assay type: cell-based, Fusobacterium mortiferum, necrogenes, ulcerans; conditions: Fusobacterium, 12 isolates
[13] = tested on: Prevotella heparinolytica; assay type: cell-based; conditions: 16 isolates
Bilophila wadsworthia = assay type: cell-based; conditions: 16 isolates, agar supplemented with pyruvate
[14] = tested on: Peptostreptococcus micros; assay type: cell-based; conditions: 12 isolates
[15] = tested on: Prevotella melaninogenica; assay type: cell-based; conditions: 12 isolates
Clostridium ramosum = assay type: cell-based; conditions: Thomasclavelia ramosa, 10 isolates
Fusobacterium russii = assay type: cell-based; conditions: Fusobacterium russii
Bacteroides ureolyticus = assay type: cell-based; conditions: Campylobacter ureolyticus, 17 isolates
Porphyromonas spp. = assay type: cell-based, Porphyromonas cangingivalis, cansulci, circumdentaria, levii; conditions: Porphyromonas, 11 isolates
[16] = read-out: Minimal Inhibitory Concentration 90% (MIC90)
[17] = read-out: Minimal Inhibitory Concentration 50% (MIC50)
[18] = Porphyromonas, read-out: Minimal Inhibitory Concentration 50% (MIC50)
[19] = Porphyromonas, read-out: Minimal Inhibitory Concentration 90% (MIC90)

Structure (SMILES): CC[C@H]1OC(=O)[C@H](C)[C@@H](O[C@H]2C[C@@](C)(OC)[C@@H](O)[C@H](C)O2)[C@H](C)[C@@H](O[C@@H]2O[C@H](C)C[C@H](N(C)C)[C@H]2O)[C@](C)(O)C[C@@H](C)C(=O)[C@H](C)[C@@H](O)[C@]1(C)O [Erythromycin]
- MIC90 [1, 16]: > 32 µg/mL
- MIC50 [1, 17]: 16 µg/mL (≈ 21.8 µM)
- MIC90 (Bacteroides gracilis; [16]): 2 µg/mL (≈ 2.73 µM)
- MIC50 (Bacteroides gracilis; [17]): 1 µg/mL (≈ 1.36 µM)
- Minimal Inhibitory Concentration Range [2]: 0.5 to 8 µg/mL
- MIC90 ([2]; Prevotella, read-out: Minimal Inhibitory Concentration 90% (MIC90)): 2 µg/mL (≈ 2.73 µM)
- MIC50 ([2]; Prevotella, read-out: Minimal Inhibitory Concentration 50% (MIC50)): 1 µg/mL (≈ 1.36 µM)
- MIC90 (Prevotella bivia; [16]): 2 µg/mL (≈ 2.73 µM)
- MIC50 (Prevotella bivia; [17]): 1 µg/mL (≈ 1.36 µM)
- Minimal Inhibitory Concentration Range [3]: 8 to 16 µg/mL
- MIC50 ([3]; Anaerobiospirillum succiniciproducens, read-out: Minimal Inhibitory Concentration 50% (MIC50)): 16 µg/mL (≈ 21.8 µM)
- Minimal Inhibitory Concentration Range (Porphyromonas macaccae): 0.06 to 0.25 µg/mL
- MIC50 (Porphyromonas macaccae; [18]): 0.125 µg/mL (≈ 0.17 µM)
- MIC90 (Porphyromonas macaccae; [19]): 0.25 µg/mL (≈ 0.341 µM)
- MIC50 (Clostridium dfficile; [17]): 0.5 µg/mL (≈ 0.681 µM)
- MIC90 (Clostridium dfficile; read-out: Minimal Inhibitory Concentration 90% (MIC90), 14 isolates): > 32 µg/mL
- MIC50 (Fusobacterium varium; [17]): > 32 µg/mL
- MIC90 (Fusobacterium varium; [16]): > 32 µg/mL
- MIC50 [4, 17]: 4 µg/mL (≈ 5.45 µM)
- MIC90 [4, 16]: > 32 µg/mL
- Minimal Inhibitory Concentration Range (Prevotella intermedia): 0.03 to 0.5 µg/mL
- MIC90 (Prevotella intermedia; Prevotella intermedia, read-out: Minimal Inhibitory Concentration 90% (MIC90)): 0.25 µg/mL (≈ 0.341 µM)
- MIC50 (Prevotella intermedia; Prevotella intermedia, read-out: Minimal Inhibitory Concentration 50% (MIC50)): 0.06 µg/mL (≈ 0.0818 µM)
- MIC90 [5, 16]: 0.03 µg/mL (≈ 0.0409 µM)
- MIC50 [5, 17]: ≤ 0.015 µg/mL
- Minimal Inhibitory Concentration Range [6]: 1 to 16 µg/mL
- MIC50 ([6]; Anaerobiospirillum thomasii, read-out: Minimal Inhibitory Concentration 50% (MIC50)): 4 µg/mL (≈ 5.45 µM)
- MIC90 ([6]; Anaerobiospirillum thomasii, read-out: Minimal Inhibitory Concentration 90% (MIC90)): 8 µg/mL (≈ 10.9 µM)
- MIC50 [7]: 0.25 µg/mL (≈ 0.341 µM)
- Minimal Inhibitory Concentration Range (Porphyromonas canoris): 0.03 to 0.25 µg/mL
- MIC50 (Porphyromonas canoris; Porphyromonas canoris, read-out: Minimal Inhibitory Concentration 50% (MIC50)): 0.06 µg/mL (≈ 0.0818 µM)
- MIC90 (Porphyromonas canoris; Porphyromonas canoris, read-out: Minimal Inhibitory Concentration 90% (MIC90)): 0.125 µg/mL (≈ 0.17 µM)
- MIC50 ([8]; GROUP1, read-out: Minimal Inhibitory Concentration 50% (MIC50)): 8 µg/mL (≈ 10.9 µM)
- MIC90 ([8]; GROUP1, read-out: Minimal Inhibitory Concentration 90% (MIC90)): 32 µg/mL (≈ 43.6 µM)
- MIC50 [9]: > 32 µg/mL
- MIC90 (Clostridium inocuum; [16]): > 32 µg/mL
- MIC50 (Clostridium inocuum; [17]): > 32 µg/mL
- MIC50 [10, 17]: 4 µg/mL (≈ 5.45 µM)
- MIC90 [10, 16]: > 32 µg/mL
- Minimal Inhibitory Concentration Range (Actinomyces israelii): 0.03 µg/mL
- MIC50 (Actinomyces israelii; Actinomyces israelii, read-out: Minimal Inhibitory Concentration 50% (MIC50)): 0.03 µg/mL (≈ 0.0409 µM)
- Minimal Inhibitory Concentration Range (Bacteroides tectum): 0.25 to 1 µg/mL
- MIC90 (Bacteroides tectum; Bacteroides pyogenes, read-out: Minimal Inhibitory Concentration 90% (MIC90)): 0.5 µg/mL (≈ 0.681 µM)
- MIC50 (Bacteroides tectum; Bacteroides pyogenes, read-out: Minimal Inhibitory Concentration 50% (MIC50)): 0.5 µg/mL (≈ 0.681 µM)
- Minimal Inhibitory Concentration Range (Porphyromonas gingivalis): 0.06 to 0.5 µg/mL
- MIC50 (Porphyromonas gingivalis; Porphyromonas gingivalis, read-out: Minimal Inhibitory Concentration 50% (MIC50)): 0.125 µg/mL (≈ 0.17 µM)
- MIC90 (Porphyromonas gingivalis; Porphyromonas gingivalis, read-out: Minimal Inhibitory Concentration 90% (MIC90)): 0.5 µg/mL (≈ 0.681 µM)
- Minimal Inhibitory Concentration Range [11]: 0.03 to 32 µg/mL
- MIC50 [11, 18]: 0.03 µg/mL (≈ 0.0409 µM)
- MIC90 [11, 19]: 32 µg/mL (≈ 43.6 µM)
- MIC90 (Veillonella spp.; [16]): > 32 µg/mL
- MIC50 (Veillonella spp.; [17]): 16 µg/mL (≈ 21.8 µM)
- MIC50 [12, 17]: > 32 µg/mL
- MIC90 [12, 16]: > 32 µg/mL
- Minimal Inhibitory Concentration Range [13]: 0.25 to 0.5 µg/mL
- MIC90 ([13]; Prevotella heparinolytica, read-out: Minimal Inhibitory Concentration 90% (MIC90)): 0.25 µg/mL (≈ 0.341 µM)
- MIC50 ([13]; Prevotella heparinolytica, read-out: Minimal Inhibitory Concentration 50% (MIC50)): 0.25 µg/mL (≈ 0.341 µM)
- Minimal Inhibitory Concentration Range (Bilophila wadsworthia): 4 to 32 µg/mL
- MIC90 (Bilophila wadsworthia; Bilophila wadsworthia, read-out: Minimal Inhibitory Concentration 90% (MIC90)): 32 µg/mL (≈ 43.6 µM)
- MIC50 (Bilophila wadsworthia; Bilophila wadsworthia, read-out: Minimal Inhibitory Concentration 50% (MIC50)): 16 µg/mL (≈ 21.8 µM)
- Minimal Inhibitory Concentration Range [14]: 0.5 to 1 µg/mL
- MIC50 ([14]; Parvimonas micra, read-out: Minimal Inhibitory Concentration 50% (MIC50)): 0.5 µg/mL (≈ 0.681 µM)
- MIC90 ([14]; Parvimonas micra, read-out: Minimal Inhibitory Concentration 90% (MIC90)): 0.5 µg/mL (≈ 0.681 µM)
- Minimal Inhibitory Concentration Range [15]: 0.06 to 32 µg/mL
- MIC90 ([15]; Prevotella melaninogenica, read-out: Minimal Inhibitory Concentration 90% (MIC90)): 8 µg/mL (≈ 10.9 µM)
- MIC50 ([15]; Prevotella melaninogenica, read-out: Minimal Inhibitory Concentration 50% (MIC50)): 1 µg/mL (≈ 1.36 µM)
- MIC50 (Clostridium ramosum; [17]): 1 µg/mL (≈ 1.36 µM)
- MIC90 (Clostridium ramosum; [16]): > 32 µg/mL
- MIC50 (Fusobacterium russii; [17]): 4 µg/mL (≈ 5.45 µM)
- MIC90 (Fusobacterium russii; [16]): > 32 µg/mL
- MIC90 (Bacteroides ureolyticus; [16]): 2 µg/mL (≈ 2.73 µM)
- MIC50 (Bacteroides ureolyticus; [17]): 0.025 µg/mL (≈ 0.0341 µM)
- MIC50 (Porphyromonas spp.; [17]): 0.06 µg/mL (≈ 0.0818 µM)
- MIC90 (Porphyromonas spp.; [16]): 0.06 µg/mL (≈ 0.0818 µM)
